Here are results for six molecules from patent publication US9701645B2 (priority 2005, dated 2017).

Where two headings read alike, the source gives them in different places.

Data set [1] deals with MPTP-lesioned primate (marmosets) model of Parkinson's disease. The note with it: 10 mg/kg i.p., without attenuation of the anti-parkinsonian actions of L-DOPA; cited from earlier work.
For another data set, the target named is T1, delta receptor (Mus musculus, UniProt P32300).
T1 construct: vasa deferentia were isolated from male CD-1 mice; tissue Charles River; host or cells: isolated vas deferens of male CD-1 mice
T1 sequence (P32300 whole entry): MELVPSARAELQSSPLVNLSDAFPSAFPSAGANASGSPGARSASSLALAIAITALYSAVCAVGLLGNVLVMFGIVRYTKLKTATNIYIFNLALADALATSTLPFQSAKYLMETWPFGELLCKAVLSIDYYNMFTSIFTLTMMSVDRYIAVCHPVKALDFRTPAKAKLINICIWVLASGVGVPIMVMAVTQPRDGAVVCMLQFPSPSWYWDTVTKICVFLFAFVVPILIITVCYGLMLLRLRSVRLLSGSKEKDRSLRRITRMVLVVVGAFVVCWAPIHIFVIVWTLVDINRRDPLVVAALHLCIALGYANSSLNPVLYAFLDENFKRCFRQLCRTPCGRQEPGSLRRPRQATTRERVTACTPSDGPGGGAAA
The data set can be described thus: Intrinsic activity, electrically-induced contractions of mouse isolated vas deferens (MVD). In kind it is cell-based. As to the method:
(§1) The basic pharmacology of the Formulas (i)-(iv) is described below in terms of receptor binding affinity (delta and mu receptors from rat whole brain homogenate; kappa receptors from guinea pig cerebellar homogenate), intrinsic activity in mouse isolated vas deferens (delta receptor) and guinea pig isolated ileum (mu receptor).
Tension development in isolated mouse vas deferens was measured as described previously (Chang et al., 1993). Following cervical dislocation, vasa deferentia were isolated from male CD-1 mice (Charles River, Raleigh, N.C.) weighing 20-25 g. Muscles were suspended in individual organ baths containing Mg-free Krebs-Henseleit solution (37° C., aerated with O2—CO2, 95:5) of the following composition (mM): NaCl, 117.5; KCl, 4.75; CaCl2, 2.6; KH2PO4, 1.2; NaHCO3, 24.5; and glucose, 11. The vas deferens segments were positioned between platinum electrodes (Radnoti Glassware Technology Inc., Monrovia, Calif.) and connected to a Grass (Grass-Telefactor, West Warwick, R.I.) FTO3 isometric force transducer under a resting tension of 0.5 g. Muscles were stimulated to contract by administering 400 msec pulse trains (1 msec duration, supramaximal voltage, 10 Hz) with a Grass S88 stimulator. An IC50 value for test compound inhibition of electrically-induced contractions was produced through the addition of cumulative concentrations of test compound to the bathing solution (Chang et al., 1993).
The ED50 values for formula (ii) were extrapolated from curves showing the dose concentration plotted against the response and are presented in FIG. 2.

Data set [2] concerns Parkinson's disease rodent models. The data set can be described thus: Parkinson's disease rodent models (summary statements). The note with it: for Overshoot of locomotor activation beyond normal control animals: haloperidol- or reserpine-treated rats. In kind it is in vivo, rat. How it is done: (§2) Behavioral parameters were monitored in transparent shoebox cages that measured 45×25×20 cm, with a 1-cm depth of wood chips on the cage floor and a plastic grid on top of the cage. Rectangular photocell monitors with a bank of 3 photocell beams surrounded each test cage. Ambulations (locomotor activity: total number of beam breaks in 1 hour) were recorded by computer and stored for each test session.
(§3) Animals were administered injections of dextrose, reserpine or haloperidol. Formula (i) or Formula (ii) was then administered 18 hours after reserpine at doses of 3, 10 or 30 mg/kg or 15 minutes after haloperidol at doses of 1, 3, 10 or 30 mg/kg. Animals were monitored over a 60-min period in all instances, and data are expressed as total counts over the entire 1 h test period. […] In these studies, clinically effective therapies such as dopamine replacement therapy restore locomotor activity in dopamine-depleted or dopamine antagonist treated animals. Dopamine replacement therapy also, however, produces an overshoot in locomotor activity beyond the locomotor counts observed with normal control animals (with intact dopamine systems). This is considered the activating component of dopamine replacement therapy that results in dyskinesias in Parkinson's patients.
An opioid receptor agonist selective for the delta receptor. • 2. Active in Parkinson's disease rodent models. • a. Potent at improving locomotor activity of haloperidol-treated rats. • b. Potent at improving locomotor activity in reserpine treated rats. • 3. Orally active in Parkinson's disease rodent models. • a.

A further data set concerns mice. The data set can be described thus: Seizure-like convulsion incidence in mice. It is filed as in vivo, mouse. From the text: One of the most obvious side-effects of potent delta agonists that rapidly penetrate the blood brain barrier is convulsive episodes reminiscent of possible seizure-like brain activity. The mouse is the chosen species for study of these effects since the mouse is the most highly convulsion-sensitive rodent species and mice present with a clear and obvious, whole body tonic-clonic convulsion. One of the earliest phases of delta agonist safety assessments is thus the determination of the convulsion threshold in mice.

In the next data set the test system is reserpine treated rats. As to the kind of experiment: Locomotor activity in reserpine treated rats. It is filed as in vivo, rat. The note with it: compound 18 hours after reserpine, 3, 10 or 30 mg/kg, total counts over 1 h. How it is done:
as §2, §3

The target of a further data set is T2, kappa-opioid receptor (Cavia porcellus, UniProt P41144).
T2 construct: kappa receptors from guinea pig cerebellar homogenate; from tissue; host or cells: guinea pig cerebellar homogenate (membrane fractions)
T2 sequence (P41144 whole entry): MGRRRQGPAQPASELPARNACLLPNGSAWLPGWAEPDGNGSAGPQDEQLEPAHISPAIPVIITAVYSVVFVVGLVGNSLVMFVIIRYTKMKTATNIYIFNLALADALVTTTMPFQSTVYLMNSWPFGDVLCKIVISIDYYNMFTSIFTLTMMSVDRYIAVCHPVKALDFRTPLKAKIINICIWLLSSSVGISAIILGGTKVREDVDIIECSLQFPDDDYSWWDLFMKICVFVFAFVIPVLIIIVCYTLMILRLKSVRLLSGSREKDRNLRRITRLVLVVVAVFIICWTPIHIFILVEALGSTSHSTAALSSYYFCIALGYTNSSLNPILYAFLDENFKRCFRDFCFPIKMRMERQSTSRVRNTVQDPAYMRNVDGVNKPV
The data set can be described thus: Radioligand binding, kappa receptor ([3H]U69593). Also on record: species or system guinea pig. As to the method: as §1
(§4) Membrane fractions were incubated with test compound or naloxone (1×10^−6 M) plus 0.1 nM of the delta-opioid receptor agonist [^3H] DPDPE (specific activity 50.6 Ci/mmol), 0.1 nM of the mu-opioid receptor agonist [^3H]DAMGO (specific activity 50.0 Ci/mmol) or 0.1 nM of the kappa-opioid receptor agonist [^3H]U69593 (specific activity 41.4 Ci/mmol) in 2 ml of 10 mM Tris-HCl buffer containing 5 mM MgCl2 and protease inhibitors. Incubation was carried out for 90 min at 25° C. in order to permit the complete equilibration of the radioligand with its receptor. The reaction was terminated by rapid filtration through Whatman GF/C glass fiber filters using a cell harvester (model M-48R, Brandel Instruments, Gaithersberg, Md.) followed by two 5 ml rinses with ice-cold 50 mM Tris buffer. Non-specific binding was defined as that radioligand bound in the presence of 1×10^−6 M naloxone.

A further data set has as its target T3, delta-opioid receptor (Rattus norvegicus, UniProt P33533).
T3 construct: delta and mu receptors from rat whole brain homogenate; from tissue; host or cells: rat whole brain homogenate (membrane fractions)
As to the kind of experiment: Radioligand binding, delta receptor ([3H]DPDPE). As to the method:
as §1, §4

Another data set concerns the target T4, mu-opioid receptor (Rattus norvegicus, UniProt P33535).
T4 construct: delta and mu receptors from rat whole brain homogenate; from tissue; host or cells: rat whole brain homogenate (membrane fractions)
As to the kind of experiment: Radioligand binding, mu receptor ([3H]DAMGO). As to the method:
as §1, §4

The test system of the next data set is haloperidol-treated rats. As to the kind of experiment: Locomotor activity in haloperidol treated rats. It is filed as in vivo, rat. The note with it: for Efficacy on locomotor activity (FIG. 1): compound 15 minutes after haloperidol, 1, 3, 10 or 30 mg/kg, total counts over 1 h. As to the method: as §2, §3
The subject of another data set is rats. As to the kind of experiment: Seizure-like convulsant activity in rats. The note with it: oral doses up to 40 mg/kg, results not shown. In kind it is in vivo, rat.

T4 sequence (P33535 whole entry): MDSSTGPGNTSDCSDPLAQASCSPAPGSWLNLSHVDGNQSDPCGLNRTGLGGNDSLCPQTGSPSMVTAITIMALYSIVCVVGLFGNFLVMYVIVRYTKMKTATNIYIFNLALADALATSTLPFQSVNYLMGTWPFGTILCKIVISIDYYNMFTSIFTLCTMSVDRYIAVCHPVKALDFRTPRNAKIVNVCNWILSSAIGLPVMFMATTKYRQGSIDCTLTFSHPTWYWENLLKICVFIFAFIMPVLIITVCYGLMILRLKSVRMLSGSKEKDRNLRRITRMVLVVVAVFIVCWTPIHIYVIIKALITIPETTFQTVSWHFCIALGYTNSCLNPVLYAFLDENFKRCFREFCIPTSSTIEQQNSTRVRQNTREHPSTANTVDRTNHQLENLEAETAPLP
T3 sequence (P33533 whole entry): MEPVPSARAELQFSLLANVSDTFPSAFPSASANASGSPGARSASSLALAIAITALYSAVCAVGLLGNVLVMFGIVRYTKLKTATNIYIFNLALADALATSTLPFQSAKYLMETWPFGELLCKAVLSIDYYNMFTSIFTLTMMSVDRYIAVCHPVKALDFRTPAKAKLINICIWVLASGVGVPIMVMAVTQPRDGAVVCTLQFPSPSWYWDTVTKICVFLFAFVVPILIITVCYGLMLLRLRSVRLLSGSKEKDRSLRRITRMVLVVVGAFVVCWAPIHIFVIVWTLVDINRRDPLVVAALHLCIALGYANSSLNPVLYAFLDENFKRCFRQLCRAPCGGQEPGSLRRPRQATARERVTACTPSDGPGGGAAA

As for `COc1cccc2c1[C@]13CCN(CC4CC4)[C@H](C2)[C@]1(OC)CCC(=O)C3` [cyprodime], in data set [1], the L-DOPA-induced dyskinesia entry was “reduce completely”.

One may read the EC50 as the concentration giving half of the maximal effect. The molecule `CCN(CC)C(=O)c1ccc([C@H](c2cccc(O)c2)N2C[C@@H](C)N(Cc3ccccc3F)C[C@@H]2C)cc1` [Formula (ii), 4-((Alpha-R)-Alpha-((2S,5R)-2,5-Dimethyl-4-(2-fluorobenzyl)-1-piperazinyl)-3-hydroxybenzyl)-N,N-diethylbenzamide] came in with an EC50 at delta receptor of 3 nM. Also, the “Overshoot of locomotor activation beyond normal control animals” value in data set [2] was “No evidence for overshoot of locomotor activation”. In addition, the “Oral activity in Parkinson's disease rodent models” value in [2] was “Orally active”. Moreover, the “Seizure-like convulsion incidence in mice (% of animals treated)” value with mice (Intravenous 1 mg/kg) stood at 0%; in the data set on mice (Intravenous 3 mg/kg), 30%; in the data set on mice (Oral 15 mg/kg) it was 20%; with mice (Oral 30 mg/kg), 20%; with mice (Oral 60 mg/kg), 30%. The “Seizure activity in mice relative to SNC80” value in the data set with mice was “reduced relative to SNC80”. Moreover, the “Efficacy on locomotor activity (FIG. 1)” value in the data set with reserpine treated rats and in the data set on haloperidol-treated rats (haloperidol treated rats) was “clear efficacy” in each case. The Ki on kappa-opioid receptor was 171 nM; on delta-opioid receptor (rat whole brain homogenate, 0.1 nM [3H]DPDPE, read-out: Receptor Binding Affinity, Ki Delta), 0.77 nM; at mu-opioid receptor, 7.8 nM. Besides, the “Binding affinity for the delta receptor compared to SNC80” value on delta-opioid receptor was “increased binding affinity”. Further, the “Binding affinity for the mu receptor compared to SNC80” value at mu-opioid receptor is “increased binding affinity”. In addition, the “Beneficial effects in presence of delta receptor antagonist naltrindole (FIG. 4)” value in the data set with haloperidol-treated rats (haloperidol treated rats, with naltrindole (NTI)) was “completely blocked”. For the same molecule, the “Anti-parkinsonian syndrome effects (FIG. 3B)” value with haloperidol-treated rats (haloperidol-treated rats, i.p. (intraperitoneal)) is listed as “shows potency”. Further, the “Anti-parkinsonian syndrome effects (FIG. 3A)” value with haloperidol-treated rats (haloperidol-treated rats, p.o. (oral, by gavage)) was “shows potency”.

For `Oc1ccc2c3c1O[C@H]1c4[nH]c5ccccc5c4C[C@@]4(O)[C@@H](C2)N(CC2CC2)CC[C@]314` [naltrindole, reference compound], in the data set on haloperidol-treated rats (naltrindole alone), the “Effect alone in haloperidol treated rats (FIG. 4)” value was “no effect”.

On delta receptor, `CCN(CC)C(=O)c1ccc([C@H](c2cccc(OC)c2)N2C[C@@H](C)N(Cc3ccccc3F)C[C@@H]2C)cc1` [Formula (iv), 4-((alpha-R)-alpha-((2S,5R)-2,5-Dimethyl-4-(2-fluorobenzyl)-1-piperazinyl)-3-methoxybenzyl)-N,N-diethylbenzamide] came in with an EC50 of 4.1 nM. Moreover, the “Seizure-like convulsion incidence in mice (% of animals treated)” value in the data set on mice (Intravenous 1 mg/kg) was 0%; in the data set with mice (Intravenous 3 mg/kg) it was 20%; with mice (Oral 30 mg/kg), 0%; in the data set with mice (Oral 60 mg/kg), 10%. Also, the figures for the Ki on kappa-opioid receptor, at delta-opioid receptor and on mu-opioid receptor were 100 nM, 4.2 nM and 5000 nM, respectively.

The molecule `CCN(CC)C(=O)c1ccc([C@H](c2cccc(O)c2)N2C[C@@H](C)N(Cc3cccc(F)c3)C[C@@H]2C)cc1` [Formula (i), 4-((alpha-R)-alpha-((2S,5R)-2,5-Dimethyl-4-(3-fluorobenzyl)-1-piperazinyl)-3-hydroxybenzyl)-N,N-diethylbenzamide] yielded an EC50 on delta receptor of 2.6 nM. The “Overshoot of locomotor activation beyond normal control animals” value in [2] was “No evidence for overshoot of locomotor activation”. Further, in data set [2], the “Oral activity in Parkinson's disease rodent models” value is on record as “Orally active”. For the same molecule, the “Oral seizure-like convulsant activity in rats” value in the data set on rats is “no oral-seizure-like convulsant activity”. Besides, the “Seizure-like convulsion incidence in mice (% of animals treated)” value in the data set on mice (Intravenous 0.3 mg/kg) was 0%; with mice (Intravenous 1 mg/kg), 50%; in the data set with mice (Intravenous 3 mg/kg), 40%; in the data set with mice (Oral 15 mg/kg), 23%. The “Seizure activity in mice relative to SNC80” value with mice was “reduced relative to SNC80”. Further, the “Efficacy on locomotor activity (FIG. 1)” value with reserpine treated rats and in the data set with haloperidol-treated rats (haloperidol treated rats) was “clear efficacy” in each case. Moreover, the values for the Ki at kappa-opioid receptor, on delta-opioid receptor and at mu-opioid receptor were 567 nM, 0.73 nM and 11.6 nM, respectively. Besides, at delta-opioid receptor, the “Binding affinity for the delta receptor compared to SNC80” value is listed as “increased binding affinity”. In addition, the “Binding affinity for the mu receptor compared to SNC80” value on mu-opioid receptor is “increased binding affinity”.

At delta receptor, `CCN(CC)C(=O)c1ccc([C@H](c2cccc(OC)c2)N2C[C@@H](C)N(Cc3cccc(F)c3)C[C@@H]2C)cc1` [Formula (iii), 4-((alpha-R)-alpha-((2S,5R)-2,5-Dimethyl-4-(3-fluorobenzyl)-1-piperazinyl)-3-methoxybenzyl)-N,N-diethylbenzamide] came in with an EC50 of 29 nM. Further, the “Seizure-like convulsion incidence in mice (% of animals treated)” value in the data set on mice (Intravenous 3 mg/kg) worked out at 20%; with mice (Oral 60 mg/kg), 0%. Moreover, the Ki on kappa-opioid receptor was determined as 100 nM; on delta-opioid receptor, 5.6 nM; on mu-opioid receptor it was 5000 nM.
